Series [1] has as its system acetic acid-induced writhing in mice. Description: Acetic acid induced writhing test. The note with it: 50 mg/kg p.o.; for Number of writhes: 1 h prior acetic acid i.p., within 30 min. It is filed as in vivo. The method, then:
The number of writhes, manifested as extension of hind legs, constriction of abdomen, or turning of trunk was recorded within 30 min.
Background: In writhing tests, fewer writhes than in controls are read as antinociception.

Series [2] has as its system NO production in LPS-activated RAW 264.7 macrophages. Description: NO production in LPS-activated RAW 264.7 macrophages (DAF-FM). The class given is cell-based. The following applies: Mus musculus, RAW264.7; LPS 1 µg/mL activated RAW 264.7. Here is the method: HCA7 colorectal cancer cell line was obtained from Sigma. […] Louis, MO) containing 10% heat-inactivated foetal bovine serum (HI-FBS) (Gibco, USA), 100 μg/mL streptomycin (Invitrogen, USA), and […] penicillin (Invitrogen, USA)[40]. HCA7 and RAW 264.7 cells were cultured in Dulbecco's minimal essential media (DMEM, Invitrogen) containing 10% HI-FBS, sodium pyruvate (1 mM), penicillin ([…]), and streptomycin (100 mg/m)[41]^,[42]. […] Molecular Probes, USA). Briefly, RAW 264.7 cells were cultured in black 96-well plates (200,000 cells/mL, 100 µl/well) for 24 h. […] The fluorescence intensity, which is directly proportional to NO levels, was quantified, as detailed in our previous study. IC50 values were calculated from the dose–response curves.

In series [3] the test system is ROS production in LPS-activated RAW 264.7 macrophages. Description: ROS production in LPS-activated RAW 264.7 macrophages (DCFH-DA). It is filed as cell-based. The note with it: LPS 1 µg/mL activated RAW 264.7. Here is the method: HCA7 colorectal cancer cell line was obtained from Sigma. […] Louis, MO) containing 10% heat-inactivated foetal bovine serum (HI-FBS) (Gibco, USA), 100 μg/mL streptomycin (Invitrogen, USA), and […] penicillin (Invitrogen, USA)[40]. HCA7 and RAW 264.7 cells were cultured in Dulbecco's minimal essential media (DMEM, Invitrogen) containing 10% HI-FBS, sodium pyruvate (1 mM), penicillin ([…]), and streptomycin (100 mg/m)[41]^,[42]. […] The cells were cultured, incubated with the different test compounds, and activated with LPS (1 µg/mL) as detailed above. […] IC50 values were calculated from the dose–response curves.

The test system of series [4] is HCT116 cells. Nature of the series: MTS cell viability assay HCT116. It is filed as cell-based. The note with it: Homo sapiens, HCT-116, 48 h, cell line scarcely expressing COX-2. The method, then: (§1) Human colorectal cancer cell lines, HCT116 and HT29, and RAW 264.7 macrophages were obtained from ATCC (Manassas, VA). HCA7 colorectal cancer cell line was obtained from Sigma. HT29 and HCT116 cells were cultured in McCoy's 5 A medium (Sigma Aldrich, St. Louis, MO) containing 10% heat-inactivated foetal bovine serum (HI-FBS) (Gibco, USA), 100 μg/mL streptomycin (Invitrogen, USA), and […] penicillin (Invitrogen, USA)[40]. HCA7 and RAW 264.7 cells were cultured in Dulbecco's minimal essential media (DMEM, Invitrogen) containing 10% HI-FBS, sodium pyruvate (1 mM), penicillin ([…]), and streptomycin (100 mg/m)[41]^,[42].
(§2) Cells were cultured in 96‐well plates for 48 h and then treated with serum-free media containing different concentrations of the tested compounds (12.5, 25, 50, 100 and 150 µM). After 48 h., MTS reagent (Promega) was added as directed by the manufacturer, and then, the absorbance was measured at 495 nm. The absorbance is proportional to the number of viable cells. IC50 was calculated from the dose-response curves as described previously[45] using GraphPad Prism 8 software (GraphPad Software, San Diego, CA).
Background: Tetrazolium assays rely on reduction of a dye to a coloured formazan, in cell work by metabolically active cells.

Series [5] concerns HT29 cells. Description: MTS cell viability assay HT29. It is filed as cell-based. The note with it: Homo sapiens, HT-29, 48 h, cell line moderately expressing COX-2. Here is the method: as §1, §2
Series [6] deals with stomach ulceration in rats. Description: Gastric acute ulcerogenic activity. The following applies: rat, n = 5; for Ulcer Index (UI): UI = UN + US + UP×10^−1.
Series [7] addresses T1, ovine COX-1 (Ovis aries, UniProt P05979).
T1 sequence (P05979 25-600): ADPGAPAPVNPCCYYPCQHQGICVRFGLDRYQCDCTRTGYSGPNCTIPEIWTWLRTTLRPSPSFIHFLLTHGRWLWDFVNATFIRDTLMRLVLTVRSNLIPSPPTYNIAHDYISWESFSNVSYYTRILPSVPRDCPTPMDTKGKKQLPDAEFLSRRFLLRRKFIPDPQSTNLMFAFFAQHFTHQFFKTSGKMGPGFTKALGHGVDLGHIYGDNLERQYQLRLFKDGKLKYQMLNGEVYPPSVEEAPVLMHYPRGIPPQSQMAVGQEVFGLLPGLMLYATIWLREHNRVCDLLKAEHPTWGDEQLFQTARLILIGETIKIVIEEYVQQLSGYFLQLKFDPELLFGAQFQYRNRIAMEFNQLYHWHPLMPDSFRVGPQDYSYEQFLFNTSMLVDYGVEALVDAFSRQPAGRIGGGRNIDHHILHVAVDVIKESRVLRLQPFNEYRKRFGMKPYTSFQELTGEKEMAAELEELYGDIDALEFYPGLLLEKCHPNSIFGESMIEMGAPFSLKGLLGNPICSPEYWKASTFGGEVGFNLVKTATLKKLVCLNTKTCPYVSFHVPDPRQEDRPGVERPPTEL
Description: In vitro COX-1 inhibitory assay (colorimetric Cayman kit).
Description: (§3) All the newly synthesised compounds were tested for their ability to inhibit COX-1 and COX-2 enzymes using a screening assay method.

In series [8] the target is T2, human recombinant COX-2 (Homo sapiens, UniProt P35354).
T2 sequence (P35354 18-604): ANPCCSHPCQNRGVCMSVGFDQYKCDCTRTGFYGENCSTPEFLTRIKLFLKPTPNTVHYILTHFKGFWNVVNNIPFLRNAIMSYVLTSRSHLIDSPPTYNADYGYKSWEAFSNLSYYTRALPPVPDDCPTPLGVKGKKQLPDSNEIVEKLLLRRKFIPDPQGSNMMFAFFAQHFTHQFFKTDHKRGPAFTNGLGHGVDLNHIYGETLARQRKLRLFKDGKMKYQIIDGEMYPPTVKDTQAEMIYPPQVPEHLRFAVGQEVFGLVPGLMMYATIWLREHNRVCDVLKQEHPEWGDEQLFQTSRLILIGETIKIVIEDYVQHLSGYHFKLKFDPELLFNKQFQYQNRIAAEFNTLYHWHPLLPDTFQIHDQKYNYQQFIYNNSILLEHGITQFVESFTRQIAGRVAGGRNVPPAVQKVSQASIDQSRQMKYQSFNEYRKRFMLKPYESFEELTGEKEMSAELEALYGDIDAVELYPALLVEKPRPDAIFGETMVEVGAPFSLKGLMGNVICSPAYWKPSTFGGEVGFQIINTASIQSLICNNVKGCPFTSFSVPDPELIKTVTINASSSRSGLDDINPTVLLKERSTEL
Nature of the series: In vitro COX-2 inhibitory assay (colorimetric Cayman kit). The following applies: for Selectivity Index (SI): COX-1 IC50/COX-2 IC50.
Description: as §3

The values below come from paper PMC8330735 (Journal of Enzyme Inhibition and Medicinal Chemistry, 2021).

SMILES strings stand for the structures.

Broadly, the IC50 is the concentration that inhibits the measured activity by half. One may read the melting point as the temperature, or range, at which the solid turns liquid. `CC(C)Cc1ccc(C(C)C(=O)NN2C(=O)c3ccccc3N(C)C2c2ccc([N+](=O)[O-])cc2)cc1` (centres unmarked) [7c, 2-(4-Isobutylphenyl)-N-(1-methyl-2-(4-nitrophenyl)-4-oxo-1,4-dihydroquinazolin-3(2H)-yl) propenamide] displayed a melting point of 111 to 116 °C. In [1], the “Reduction in the pain response (writhes number)” value is recorded as 78% and the Number of writhes is 11.33 writhes. The same compound yielded an IC50 in series [2] of 23.4 ± 1.29 µM. Further, the half-inhibitory concentration (IC50) in series [3] worked out at 9.23 ± 1.76 µM. Moreover, the IC50 in series [3] (Mus musculus, RAW264.7) worked out at 9.22 µM. Also, the IC50 in series [4] is more than 150 µM. Also, in series [5], the concentration for half-maximal inhibition (IC50) turned out to be 13.4 ± 0.17 µM. In addition, in series [6], the “Average Ulcer number” value was 1, the “Lesion Incidence (%)” value is 60%, the “Number of rats with ulcer” value was 3 and the “Ulcer Index (UI)” value is 8. The same compound displayed an IC50 in series [7] of 14.73 ± 0.13 µM. Moreover, in series [8], the IC50 turned out to be 0.037 µM and the “Selectivity Index (SI)” value is given as 398.11.

`NNC(=O)CSc1nc2ccccc2c(=O)n1NC(=O)Cc1ccccc1` [13b, N-(2-((2-hydrazinyl-2-oxoethyl)thio)-4-oxoquinazolin-3(4H)-yl)-2-phenylacetamide] yielded a melting point of 210 to 215 °C. In addition, in [1], the Number of writhes entry was “no writhes”. Also, the IC50 in series [2] came out at 9.76 ± 2.14 µM. Further, the IC50 in [3] (Mus musculus, RAW264.7) stood at 24.4 ± 1.43 µM. The compound further displayed an IC50 in series [4] of more than 150 µM. This compound yielded an IC50 in series [5] of more than 150 µM. Besides, in series [6], the “Average Ulcer number” value came to 0.4, the “Lesion Incidence (%)” value amounted to 40%, the “Number of rats with ulcer” value is listed as 2 and the “Ulcer Index (UI)” value is reported as 4.8. This compound showed an IC50 in [7] of 16.92 ± 0.16 µM. In addition, in [8], the IC50 amounted to 0.045 µM and the “Selectivity Index (SI)” value stood at 373.77. Also, the “Selectivity Index (SI)” value in series [8] (listed as 13 b) worked out at 373.
